According to the supplement of paper PMC10307832:

Key:
Assay in all cases: relative viability (nuclei count vs DMSO), 5 days (fraction); higher = more cells survive
Tosedostat + Palbociclib = compound: CC(C)C[C@@H](C(=O)N[C@H](C(=O)OC1CCCC1)c1ccccc1)[C@H](O)C(=O)NO [Tosedostat] + CC(=O)c1c(C)c2cnc(Nc3ccc(N4CCNCC4)cn3)nc2n(C2CCCC2)c1=O [Palbociclib] (partner 0.5 µM)
In short: (§1)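 Relative viability is defined as nuclei in treated wells over nuclei in vehicle wells. Duplicate plates were run and medians reported. Lung cancer cell lines in 1536-well plates were dosed by pin tool one day after seeding, with one drug or with a fixed anchor-drug dose plus five library-drug doses (not always all listed) in √10 steps, and nuclei were counted after 5 days.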

[1] = compound: CC1=NN=C(O1)C2=NN=C(C=C2)N3CCC(CC3)OC4=C(C=CC(=C4)F)Cl + CC(=O)c1c(C)c2cnc(Nc3ccc(N4CCNCC4)cn3)nc2n(C2CCCC2)c1=O [Palbociclib] (partner 0.5 µM)
In short: as §1

[2] = compound: CC1=NN=C(O1)C2=NN=C(C=C2)N3CCC(CC3)OC4=C(C=CC(=C4)F)Cl + CS(=O)(=O)N1CCN(Cc2cc3nc(-c4cccc5[nH]ncc45)nc(N4CCOCC4)c3s2)CC1 [Pictilisib] (partner 1 µM)
In short: as §1

[3] = compound: CC1=NN=C(O1)C2=NN=C(C=C2)N3CCC(CC3)OC4=C(C=CC(=C4)F)Cl + O=C(c1cc(Cc2n[nH]c(=O)c3ccccc23)ccc1F)N1CCN(C(=O)C2CC2)CC1 [Olaparib] (partner 8 µM)
In short: as §1

Cell Line: 201T
- relative viability (Tosedostat + Palbociclib; first compound 0.02 µM): 0.362
- relative viability (Tosedostat + Palbociclib; first compound 0.06325 µM): 0.367
- relative viability (Tosedostat + Palbociclib; first compound 0.2 µM): 0.372
- relative viability (Tosedostat + Palbociclib; first compound 0.6325 µM): 0.38
- relative viability (Tosedostat + Palbociclib; first compound 2 µM): 0.377
- relative viability ([1]; first compound 0.253 µM): 0.219
- relative viability ([1]; first compound 0.8 µM): 0.251
- relative viability ([1]; first compound 2.53 µM): 0.221
- relative viability ([1]; first compound 8 µM): 0.21
- relative viability ([2]; first compound 0.253 µM): 0.537
- relative viability ([2]; first compound 0.8 µM): 0.634
- relative viability ([2]; first compound 2.53 µM): 0.681
- relative viability ([2]; first compound 8 µM): 0.663
- relative viability ([3]; first compound 0.253 µM): 0.409
- relative viability ([3]; first compound 0.8 µM): 0.382
- relative viability ([3]; first compound 2.53 µM): 0.389
- relative viability ([3]; first compound 8 µM): 0.383

Cell Line: A549
- relative viability ([2]; first compound 0.253 µM): 0.406
- relative viability ([2]; first compound 0.8 µM): 0.255
- relative viability ([2]; first compound 2.53 µM): 0.319
- relative viability ([2]; first compound 8 µM): 0.234
- relative viability ([3]; first compound 0.253 µM): 0.235
- relative viability ([3]; first compound 0.8 µM): 0.0638
- relative viability ([3]; first compound 2.53 µM): 0.409
- relative viability ([3]; first compound 8 µM): 0.163

Cell Line: A-427
- relative viability (Tosedostat + Palbociclib; first compound 0.02 µM): 0.501
- relative viability (Tosedostat + Palbociclib; first compound 0.06325 µM): 0.514
- relative viability (Tosedostat + Palbociclib; first compound 0.2 µM): 0.55
- relative viability (Tosedostat + Palbociclib; first compound 0.6325 µM): 0.494
- relative viability (Tosedostat + Palbociclib; first compound 2 µM): 0.507
- relative viability ([1]; first compound 0.253 µM): 0.567
- relative viability ([1]; first compound 0.8 µM): 0.566
- relative viability ([1]; first compound 2.53 µM): 0.584
- relative viability ([1]; first compound 8 µM): 0.564
- relative viability ([2]; first compound 0.253 µM): 0.859
- relative viability ([2]; first compound 2.53 µM): 0.675
- relative viability ([2]; first compound 8 µM): 0.54
- relative viability ([3]; first compound 0.253 µM): 0.527
- relative viability ([3]; first compound 0.8 µM): 0.634
- relative viability ([3]; first compound 2.53 µM): 0.744
- relative viability ([3]; first compound 8 µM): 0.669

Cell Line: ABC-1
- relative viability (Tosedostat + Palbociclib; first compound 0.02 µM): 0.826
- relative viability (Tosedostat + Palbociclib; first compound 0.06325 µM): 0.706
- relative viability (Tosedostat + Palbociclib; first compound 0.2 µM): 0.704
- relative viability (Tosedostat + Palbociclib; first compound 0.6325 µM): 0.576
- relative viability (Tosedostat + Palbociclib; first compound 2 µM): 0.531
- relative viability ([1]; first compound 0.253 µM): 0.411
- relative viability ([1]; first compound 0.8 µM): 0.271
- relative viability ([1]; first compound 2.53 µM): 0.287
- relative viability ([1]; first compound 8 µM): 0.28
- relative viability ([2]; first compound 0.253 µM): 0.389
- relative viability ([2]; first compound 0.8 µM): 0.532
- relative viability ([2]; first compound 2.53 µM): 0.547
- relative viability ([2]; first compound 8 µM): 0.464
- relative viability ([3]; first compound 0.253 µM): 0.664
- relative viability ([3]; first compound 0.8 µM): 0.506
- relative viability ([3]; first compound 2.53 µM): 0.488
- relative viability ([3]; first compound 8 µM): 0.638

Cell Line: BEN
- relative viability (Tosedostat + Palbociclib; first compound 0.02 µM): 0.454
- relative viability (Tosedostat + Palbociclib; first compound 0.06325 µM): 0.463
- relative viability (Tosedostat + Palbociclib; first compound 0.2 µM): 0.537
- relative viability (Tosedostat + Palbociclib; first compound 0.6325 µM): 0.497
- relative viability (Tosedostat + Palbociclib; first compound 2 µM): 0.465
- relative viability ([1]; first compound 0.253 µM): 0.452
- relative viability ([1]; first compound 0.8 µM): 0.448
- relative viability ([1]; first compound 2.53 µM): 0.487
- relative viability ([1]; first compound 8 µM): 0.52
- relative viability ([2]; first compound 0.253 µM): 0.571
- relative viability ([2]; first compound 0.8 µM): 0.62
- relative viability ([2]; first compound 2.53 µM): 0.68
- relative viability ([2]; first compound 8 µM): 0.584
- relative viability ([3]; first compound 0.253 µM): 1.2
- relative viability ([3]; first compound 0.8 µM): 0.767
- relative viability ([3]; first compound 2.53 µM): 0.966
- relative viability ([3]; first compound 8 µM): 1.07

Cell Line: CAL-12T
- relative viability (Tosedostat + Palbociclib; first compound 0.02 µM): 0.468
- relative viability (Tosedostat + Palbociclib; first compound 0.06325 µM): 0.362
- relative viability (Tosedostat + Palbociclib; first compound 0.2 µM): 0.312
- relative viability (Tosedostat + Palbociclib; first compound 0.6325 µM): 0.299
- relative viability (Tosedostat + Palbociclib; first compound 2 µM): 0.397
- relative viability ([1]; first compound 0.253 µM): 0.441
- relative viability ([1]; first compound 0.8 µM): 0.485
- relative viability ([1]; first compound 2.53 µM): 0.43
- relative viability ([1]; first compound 8 µM): 0.336
- relative viability ([2]; first compound 0.253 µM): 0.392
- relative viability ([2]; first compound 0.8 µM): 0.553
- relative viability ([2]; first compound 2.53 µM): 0.327
- relative viability ([2]; first compound 8 µM): 0.191
- relative viability ([3]; first compound 0.253 µM): 0.639
- relative viability ([3]; first compound 0.8 µM): 0.68
- relative viability ([3]; first compound 2.53 µM): 0.651
- relative viability ([3]; first compound 8 µM): 0.644

Cell Line: COR-L23
- relative viability (Tosedostat + Palbociclib; first compound 0.02 µM): 0.389
- relative viability (Tosedostat + Palbociclib; first compound 0.06325 µM): 0.357
- relative viability (Tosedostat + Palbociclib; first compound 0.2 µM): 0.338
- relative viability (Tosedostat + Palbociclib; first compound 0.6325 µM): 0.277
- relative viability (Tosedostat + Palbociclib; first compound 2 µM): 0.288
- relative viability ([1]; first compound 0.253 µM): 0.27
- relative viability ([1]; first compound 0.8 µM): 0.24
- relative viability ([1]; first compound 2.53 µM): 0.241
- relative viability ([1]; first compound 8 µM): 0.247
- relative viability ([2]; first compound 0.253 µM): 0.66
- relative viability ([2]; first compound 0.8 µM): 0.621
- relative viability ([2]; first compound 2.53 µM): 0.686
- relative viability ([2]; first compound 8 µM): 0.469
- relative viability ([3]; first compound 0.253 µM): 0.259
- relative viability ([3]; first compound 0.8 µM): 0.271
- relative viability ([3]; first compound 2.53 µM): 0.345
- relative viability ([3]; first compound 8 µM): 0.299

Cell Line: COR-L 105
- relative viability (Tosedostat + Palbociclib; first compound 0.02 µM): 0.402
- relative viability (Tosedostat + Palbociclib; first compound 0.06325 µM): 0.43
- relative viability (Tosedostat + Palbociclib; first compound 0.2 µM): 0.398
- relative viability (Tosedostat + Palbociclib; first compound 0.6325 µM): 0.357
- relative viability (Tosedostat + Palbociclib; first compound 2 µM): 0.392
- relative viability ([1]; first compound 0.253 µM): 0.403
- relative viability ([1]; first compound 0.8 µM): 0.477
- relative viability ([1]; first compound 2.53 µM): 0.405
- relative viability ([1]; first compound 8 µM): 0.495
- relative viability ([2]; first compound 0.253 µM): 0.426
- relative viability ([2]; first compound 0.8 µM): 0.405
- relative viability ([2]; first compound 2.53 µM): 0.334
- relative viability ([2]; first compound 8 µM): 0.378
- relative viability ([3]; first compound 0.253 µM): 0.556
- relative viability ([3]; first compound 0.8 µM): 0.703
- relative viability ([3]; first compound 2.53 µM): 0.819
- relative viability ([3]; first compound 8 µM): 0.901

Cell Line: Calu-6
- relative viability ([2]; first compound 0.253 µM): 0.735
- relative viability ([2]; first compound 0.8 µM): 0.747
- relative viability ([2]; first compound 2.53 µM): 0.702
- relative viability ([2]; first compound 8 µM): 0.696
- relative viability ([3]; first compound 0.253 µM): 0.381
- relative viability ([3]; first compound 0.8 µM): 0.389
- relative viability ([3]; first compound 2.53 µM): 0.385
- relative viability ([3]; first compound 8 µM): 0.384

Cell Line: ChaGo-K-1
- relative viability (Tosedostat + Palbociclib; first compound 0.02 µM): 1.01
- relative viability (Tosedostat + Palbociclib; first compound 0.06325 µM): 0.907
- relative viability (Tosedostat + Palbociclib; first compound 0.2 µM): 0.87
- relative viability (Tosedostat + Palbociclib; first compound 0.6325 µM): 0.858
- relative viability (Tosedostat + Palbociclib; first compound 2 µM): 0.671
- relative viability ([1]; first compound 0.253 µM): 0.625
- relative viability ([1]; first compound 0.8 µM): 0.502
- relative viability ([1]; first compound 2.53 µM): 0.57
- relative viability ([1]; first compound 8 µM): 0.553
- relative viability ([2]; first compound 0.253 µM): 0.633
- relative viability ([2]; first compound 0.8 µM): 0.681
- relative viability ([2]; first compound 2.53 µM): 0.508
- relative viability ([2]; first compound 8 µM): 0.548
- relative viability ([3]; first compound 0.253 µM): 0.298
- relative viability ([3]; first compound 0.8 µM): 0.255
- relative viability ([3]; first compound 2.53 µM): 0.354
- relative viability ([3]; first compound 8 µM): 0.28

Cell Line: EBC-1
- relative viability ([2]; first compound 0.253 µM): 0.33
- relative viability ([2]; first compound 0.8 µM): 0.485
- relative viability ([2]; first compound 2.53 µM): 0.473
- relative viability ([2]; first compound 8 µM): 0.408
- relative viability ([3]; first compound 0.253 µM): 0.485
- relative viability ([3]; first compound 0.8 µM): 0.538
- relative viability ([3]; first compound 2.53 µM): 0.509
- relative viability ([3]; first compound 8 µM): 0.438
